Experimental data: ChEMBL document CHEMBL5126518, “Quercetin derivatives: Drug design, development, and biological activities, a review” (Eur J Med Chem, 2022)
Values after ≈ are worked out from the molar mass of the structure shown.

What was measured:
[1] = system: MDA-MB-231; experiment: Antiproliferative activity against human MDA-MB-231 cells assessed as cell growth inhibition measured after 72 hrs by MTT assay; type: functional, cell-based; conditions: MDA-MB-231, 72 h
[2] = system: MCF7; experiment: Antiproliferative activity against human MCF7 assessed as reduction in cell viability incubated for 48 hrs by MTT assay; type: functional
[3] = system: U-87 MG; experiment: Antiproliferative activity against human U87 cells assessed as reduction in cell viability incubated for 48 hrs by SRB assay; type: functional, U-87MG ATCC
[4] = molecular target: Type-1 angiotensin II receptor (Homo sapiens, UniProt P30556); experiment: Inhibition of human AT1R expressed in HEK293 cells by non-linear regression analysis; type: cell-based
[5] = system: LN-229; experiment: Antiproliferative activity against human LN-229 cells assessed as reduction in cell viability incubated for 48 hrs by SRB assay; type: functional
[6] = system: Staphylococcus gallinarum; experiment: Antibacterial activity against Staphylococcus gallinarum ATCC 9184 assessed as cell growth inhibition by agar dilution method; type: functional
[7] = Inhibition of Escherichia coli topoisomerase 4 decatenation activity by gel electrophoresis
[8] = system: Listeria monocytogenes; experiment: Antibacterial activity against Listeria monocytogenes ATCC 15313 assessed as cell growth inhibition by agar dilution method; type: functional
[9] = system: Escherichia coli; experiment: Antibacterial activity against Escherichia coli ATCC 25922 assessed as cell growth inhibition by agar dilution method; type: functional
[10] = Inhibition of Escherichia coli topoisomerase 2 supercoiling activity by gel electrophoresis
[11] = system: Staphylococcus aureus; experiment: Antibacterial activity against Staphylococcus aureus ATCC 12600 assessed as cell growth inhibition by agar dilution method; type: functional
[12] = system: MDA-MB-231; experiment: Antiproliferative activity against human MDA-MB-231 cells assessed as cell growth inhibition measured after 48 hrs by MTT assay relative to control; type: functional; design: scale not given: the % may be the effect or the level left
[13] = Antioxidant activity assessed as DPPH radical scavenging activity after 30 mins under dark condition; type: functional
[14] = system: MDA-MB-231; experiment: Antiproliferative activity against human MDA-MB-231 cells assessed as cell growth inhibition measured after 48 hrs by MTT assay; type: functional, cell-based; conditions: MDA-MB-231, 48 h
[15] = molecular target: UDP-galactopyranose mutase (Mycobacterium tuberculosis) (UniProt P9WIQ1); experiment: Inhibition of Mycobacterium tuberculosis UGM at 20 uM by HPLC inhibition assay relative to control
[16] = Cytotoxicity against MDCK cells assessed as reduction in cell viability incubated for 48 hrs by MTT assay; type: toxicity, cell-based, Canis lupus familiaris; conditions: dog, read-out: CTD50
[17] = system: Influenza A virus; experiment: Antiviral activity against Influenza A virus H1N1/pdm09 infected in MDCK cells pretreated with compound for 1 hr followed virus infection measured after 48 hrs; type: functional, organism-based
[18] = Selectivity index, ratio of CTD50 for cytotoxicity against MDCK cells to EC50 for antiviral activity against Influenza A H1N1/pdm09 infected in MDCK cells; type: toxicity, cell-based; conditions: dog, read-out: Selectivity Index
[19] = system: Candida albicans; experiment: Antifungal activity against Candida albicans 13/15 assessed as fungal growth inhibition measured after 24 hrs by microdilution assay; type: functional
[20] = Competitive inhibition of xanthine oxidase (unknown origin) at 0.4 uM using xanthine as substrate preincubated with substrate for 1 min followed by compound addition by double beam spectrophotometer analysis relative to control
[21] = Metal chelating activity assessed as compound-Fe2+ complex formation by measuring binding energy
[22] = system: Candida albicans; experiment: Antifungal activity against Candida albicans 527/14 assessed as fungal growth inhibition measured after 24 hrs by microdilution assay; type: functional
[23] = Antioxidant activity assessed as ABTS radical scavenging activity at 5 wt% incubated for 6 mins in presence of Si and PCL50 by UV spectrophotometer analysis relative to control; type: functional
[24] = Non-competitive inhibition of xanthine oxidase (unknown origin) at 0.4 uM using xanthine as substrate preincubated with substrate for 1 min followed by compound addition by double beam spectrophotometer analysis relative to control
[25] = system: Candida albicans; experiment: Antifungal activity against Candida albicans 475/15 assessed as fungal growth inhibition measured after 24 hrs by microdilution assay; type: functional
[26] = Antioxidant activity assessed as DPPH radical scavenging activity up to 2 mM relative to control; type: functional
[27] = Metal chelating activity assessed as Zn2+-compound complex formation by measuring binding energy
[28] = Metal chelating activity assessed as compound-Cu2+ complex formation by measuring binding energy
[29] = Antioxidant activity assessed as ABTS radical scavenging activity at 10 wt% incubated for 6 mins in presence of Si and PCL50 by UV spectrophotometer analysis relative to control; type: functional
[30] = molecular target: Urease subunit alpha/Urease subunit beta (Helicobacter pylori (strain ATCC 700392 / 26695) (Campylobacterpylori), UniProt P69996); experiment: Inhibition of Helicobacter pylori urease assessed as measuring ammonia production incubated for 1.5 hr by indophenol method; type: protein-complex assay
[31] = system: J774.A1; experiment: Inhibition of LPS-induced NO production in mouse J774.A1 cells pre-incubated with compound for 1 hr followed by LPS stimulation for 24 hrs by ELISA assay; type: functional, cell-based
[32] = Antioxidant activity assessed as ABTS radical scavenging activity at 15 wt% incubated for 6 mins in presence of Si and PCL50 by UV spectrophotometer analysis relative to control; type: functional
[33] = system: Candida albicans; experiment: Antifungal activity against Candida albicans 10/15 assessed as fungal growth inhibition measured after 24 hrs by microdilution assay; type: functional
[34] = system: MCF7; experiment: Induction of apoptosis in human MCF7 cells assessed as early apoptotic cells at 50 uM measured after 12 hrs by annexin V-FITC/propidium iodide staining based flow cytometry relative to control; type: functional
[35] = Competitive inhibition of xanthine oxidase (unknown origin) at 0.05 uM using xanthine as substrate preincubated with substrate for 1 min followed by compound addition by double beam spectrophotometer analysis relative to control
[36] = molecular target: UDP-galactopyranose mutase (Mycobacterium tuberculosis, UniProt P9WIQ1); experiment: Binding affinity to Mycobacterium tuberculosis UGM assessed as dissociation constant by fluorescence polarization assay
Sequence of UDP-galactopyranose mutase (P9WIQ1 whole entry): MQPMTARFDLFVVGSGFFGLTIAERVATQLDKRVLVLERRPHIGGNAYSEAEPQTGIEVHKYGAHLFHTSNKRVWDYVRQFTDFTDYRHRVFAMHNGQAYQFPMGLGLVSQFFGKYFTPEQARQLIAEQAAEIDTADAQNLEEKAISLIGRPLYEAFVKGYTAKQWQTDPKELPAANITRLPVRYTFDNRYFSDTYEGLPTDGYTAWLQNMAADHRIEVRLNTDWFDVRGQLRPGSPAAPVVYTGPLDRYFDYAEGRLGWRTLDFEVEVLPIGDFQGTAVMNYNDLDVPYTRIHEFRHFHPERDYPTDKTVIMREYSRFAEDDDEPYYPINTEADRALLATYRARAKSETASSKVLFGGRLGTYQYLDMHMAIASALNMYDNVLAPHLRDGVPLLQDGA

Sequence of UDP-galactopyranose mutase (Mycobacterium tuberculosis) (P9WIQ1 whole entry, looked up): as the sequence (P9WIQ1 whole entry) above
Sequence of Type-1 angiotensin II receptor (P30556 whole entry): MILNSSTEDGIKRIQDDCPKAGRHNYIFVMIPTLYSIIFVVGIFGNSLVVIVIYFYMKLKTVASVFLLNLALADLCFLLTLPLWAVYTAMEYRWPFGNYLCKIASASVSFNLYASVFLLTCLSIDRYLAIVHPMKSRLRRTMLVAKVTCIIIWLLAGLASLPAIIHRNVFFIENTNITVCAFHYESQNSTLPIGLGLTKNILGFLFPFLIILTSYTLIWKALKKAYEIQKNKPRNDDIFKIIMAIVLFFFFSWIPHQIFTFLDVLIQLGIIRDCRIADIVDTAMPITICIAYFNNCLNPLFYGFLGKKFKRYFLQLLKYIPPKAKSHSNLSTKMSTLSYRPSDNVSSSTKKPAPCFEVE
Sequence of Urease subunit alpha/Urease subunit beta (P69996 whole entry): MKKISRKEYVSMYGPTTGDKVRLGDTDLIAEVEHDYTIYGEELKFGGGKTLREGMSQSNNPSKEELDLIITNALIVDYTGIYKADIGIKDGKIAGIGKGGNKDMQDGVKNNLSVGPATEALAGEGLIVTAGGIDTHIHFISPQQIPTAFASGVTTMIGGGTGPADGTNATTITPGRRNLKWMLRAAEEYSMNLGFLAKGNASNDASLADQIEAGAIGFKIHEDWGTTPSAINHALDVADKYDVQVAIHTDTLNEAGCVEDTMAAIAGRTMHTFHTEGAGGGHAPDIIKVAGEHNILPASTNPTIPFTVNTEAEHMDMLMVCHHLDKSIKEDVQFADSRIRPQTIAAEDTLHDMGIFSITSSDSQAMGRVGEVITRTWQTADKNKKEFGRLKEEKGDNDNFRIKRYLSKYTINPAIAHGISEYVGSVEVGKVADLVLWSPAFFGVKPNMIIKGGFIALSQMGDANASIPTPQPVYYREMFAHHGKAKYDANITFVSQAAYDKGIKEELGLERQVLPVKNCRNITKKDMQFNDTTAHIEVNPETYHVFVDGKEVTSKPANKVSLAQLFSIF
Sequence of Urease subunit alpha/Urease subunit beta (P14916 whole entry, further chain): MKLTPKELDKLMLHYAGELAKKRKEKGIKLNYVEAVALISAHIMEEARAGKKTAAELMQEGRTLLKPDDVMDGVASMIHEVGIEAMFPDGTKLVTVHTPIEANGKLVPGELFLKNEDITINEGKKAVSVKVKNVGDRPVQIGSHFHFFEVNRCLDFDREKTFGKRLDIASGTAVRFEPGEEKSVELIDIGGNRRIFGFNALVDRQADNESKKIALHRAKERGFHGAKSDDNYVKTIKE

With `C[C@@H]1O[C@@H](OC[C@H]2O[C@@H](Oc3c(-c4ccc(O)c(O)c4)oc4c(CN5CCCC5)c(O)c(CN5CCCC5)c(O)c4c3=O)[C@H](O)[C@@H](O)[C@@H]2O)[C@H](O)[C@H](O)[C@H]1O` as the compound, how does the IC50 [1] read?
Its IC50 is 7.57 µM.

Which Activity [2] does the source give for `COc1cc(-c2oc3cc(O)cc(O)c3c(=O)c2O[C@@H]2O[C@H](C(=O)[O-])[C@@H](O)[C@H](O)[C@H]2O)ccc1O.[Na+]` here?
The Activity was 49.8%.

With `CCCCc1nc(Cl)c(COC(=O)CCC(=O)Oc2cc(-c3oc4cc(O)cc(O)c4c(=O)c3O)ccc2O)n1Cc1ccc(-c2ccccc2-c2nnn[nH]2)cc1` as the compound, how does the Activity [3] read?
The Activity was 38%.

And the IC50 [4]?
Its IC50 is 0.14 µM.

And the Activity [5]?
Its Activity is 39%.

What does the source list for `CC(=O)OC[C@H]1OC(OC(C)=O)[C@H](NCc2c(O)cc(O)c3c(=O)cc(-c4ccc(O)c(O)c4)oc23)[C@@H](OC(C)=O)[C@@H]1OC(C)=O` (stereo partly specified)?
MIC [6]: 0.05 µg/mL (≈ 0.0775 µM); IC50 [7]: 0.25 µg/mL (≈ 0.387 µM); MIC [8]: 0.5 µg/mL (≈ 0.775 µM); MIC [9]: 2 µg/mL (≈ 3.1 µM); IC50 [10]: 0.25 µg/mL (≈ 0.387 µM); MIC [11]: 1 µg/mL (≈ 1.55 µM)

With `COc1cc(OC)c2c(=O)c(OC)c(-c3ccc(OC)c(OC)c3)oc2c1` as the compound, how does the Activity [12] read?
Its Activity is 43.7%.

And the IC50 [13]?
The IC50 was 620 µM.

And the IC50 [14]?
Its IC50 is 2.04 µM.

With `O=c1c(O)c(-c2ccc(O)c(O)c2)oc2c(CN3CCOCC3)c(O)cc(O)c12` as the compound, how does the inhibition [15] read?
The inhibition was 100%.

Which results are given for `COc1ccc(CNCc2c(O)cc(O)c3c(=O)cc(-c4ccc(O)c(O)c4)oc23)cc1`?
IC50 [7]: 0.25 µg/mL (≈ 0.574 µM); IC50 [10]: 0.25 µg/mL (≈ 0.574 µM)

Which CC50 at 48 h [16] does the source give for `CCOC1(Br)C(=O)c2c(O)c(Br)c(O)c(Br)c2OC1(Br)c1cc(O)c(O)c(Br)c1` (stereo unspecified) here?
The CC50 at 48 h was 97.7 µg/mL (≈ 134 µM).

What about the EC50 [17] of the same compound?
Its EC50 is 6 µg/mL (≈ 8.26 µM).

And the selectivity ratio [18]?
The selectivity ratio was 16.

With `O=c1c(O)c(-c2ccc(O)c(O)c2)oc2cc(O)cc(O)c12` [QUERCETIN] as the compound, how does the MIC [19] read?
Its MIC is 37.5 µg/mL (≈ 124 µM).

What about the inhibition [20] of the same compound?
The inhibition was 50%.

What about the Activity [21] of the same compound?
The Activity was 694 kcal/mol.

What about the MIC [22] of the same compound?
Its MIC is 37.5 µg/mL (≈ 124 µM).

What about the Activity [23] of the same compound?
The Activity was 15.6%.

What about the Activity [2] of the same compound?
The Activity was 70.8%.

What about the inhibition [24] of the same compound?
Its inhibition is 50%.

And the MIC [25]?
The MIC was 37.5 µg/mL (≈ 124 µM).

And the Activity [26]?
The Activity was 80%.

What about the Activity [27] of the same compound?
The Activity was 939 kcal/mol.

What about the Activity [28] of the same compound?
Its Activity is 918 kcal/mol.

And the Activity [29]?
The Activity was 24.7%.

And the Ki [30]?
Its Ki is 9.34 µM.

And the IC50 [31]?
Its IC50 is 49.1 µM.

And the IC50 [13]?
The IC50 was 4 µM.

And the Activity [32]?
Its Activity is 8.4%.

What about the MIC [33] of the same compound?
Its MIC is 37.5 µg/mL (≈ 124 µM).

What about the Activity [34] of the same compound?
Its Activity is 44.1%.

For `COc1cc(OC)c2c(=S)c(OC)c(-c3ccc(OC)c(OC)c3)oc2c1`, which IC50 [13] is on record?
Its IC50 is 360 µM.

With `C[C@@H]1O[C@@H](OC[C@H]2O[C@@H](Oc3c(-c4ccc(O)c(O)c4)oc4cc(O)cc(O)c4c3=O)[C@H](O)[C@@H](O)[C@@H]2O)[C@H](O)[C@H](O)[C@H]1O` [RUTIN] as the compound, how does the MIC [19] read?
The MIC was 37.5 µg/mL (≈ 61.4 µM).

What about the MIC [22] of the same compound?
The MIC was 37.5 µg/mL (≈ 61.4 µM).

And the MIC [25]?
The MIC was 37.5 µg/mL (≈ 61.4 µM).

What about the MIC [33] of the same compound?
The MIC was 37.5 µg/mL (≈ 61.4 µM).

With `O=c1oc2c(O)ccc(-c3oc4cc(O)cc(O)c4c(=O)c3O)c2s1` as the compound, how does the inhibition [35] read?
Its inhibition is 50%.

What does the source list for `O=c1c(O)c(-c2ccc(O)c(O)c2)oc2c(CN3CCCC3)c(O)cc(O)c12`?
Kd [36]: > 2000 µM; inhibition [15]: 47.8%
